# Results published in ChEMBL document CHEMBL4308841, “Synthesis, in vitro antiproliferative activity, and kinase inhibitory effects of pyrazole-containing diarylureas and diarylamides” (Eur J Med Chem, 2018).
# What was measured:
# OVCAR-8 = assay: Growth inhibition of human OVCAR8 cells assessed as cell growth at 1 uM incubated for 48 hrs by sulforhodamine B assay relative to control; format: functional; details: OVCAR-8, 48 h, read-out: Activity
# PC-3 = assay: Growth inhibition of human PC3 cells assessed as cell growth at 0.1 uM incubated for 48 hrs by sulforhodamine B assay relative to control; format: functional; details: PC-3, 48 h, read-out: Activity
# SR = assay: Growth inhibition of human SR cells assessed as cell growth at 0.01 uM incubated for 48 hrs by sulforhodamine B assay relative to control; format: functional; details: read-out: Activity
# SF-268 [1] = assay: Growth inhibition of human SF268 cells assessed as cell growth at 1 uM incubated for 48 hrs by sulforhodamine B assay relative to control; format: functional; details: SF-268, 48 h, read-out: Activity
# HCT-116 = assay: Growth inhibition of human HCT116 cells assessed as cell growth at 100 uM incubated for 48 hrs by sulforhodamine B assay relative to control; format: functional; details: HCT-116, 48 h, read-out: Activity
# SF-295 [2] = assay: Growth inhibition of human SF295 cells incubated for 48 hrs by sulforhodamine B assay; format: functional, cell-based; details: SF-295, 48 h
# SF-268 [3] = assay: Growth inhibition of human SF268 cells assessed as cell growth at 100 uM incubated for 48 hrs by sulforhodamine B assay relative to control; format: functional; details: SF-268, 48 h, read-out: Activity
# SF-295 [4] = assay: Growth inhibition of human SF295 cells assessed as cell growth at 1 uM incubated for 48 hrs by sulforhodamine B assay relative to control; format: functional; details: SF-295, 48 h, read-out: Activity
# SK-MEL-2 = assay: Growth inhibition of human SK-MEL-2 cells assessed as cell growth at 100 uM incubated for 48 hrs by sulforhodamine B assay relative to control; format: functional; details: SK-MEL-2, 48 h, read-out: Activity
# Hs-578T = assay: Growth inhibition of human Hs578T cells assessed as cell growth at 100 uM incubated for 48 hrs by sulforhodamine B assay relative to control; format: functional; details: read-out: Activity
# OVCAR-4 [5] = assay: Growth inhibition of human OVCAR4 cells assessed as cell growth at 0.1 uM incubated for 48 hrs by sulforhodamine B assay relative to control; format: functional; details: OVCAR-4, 48 h, read-out: Activity
# OVCAR-4 [6] = assay: Growth inhibition of human OVCAR4 cells assessed as cell growth at 100 uM incubated for 48 hrs by sulforhodamine B assay relative to control; format: functional; details: OVCAR-4, 48 h, read-out: Activity
# M14 = assay: Growth inhibition of human M14 cells assessed as cell growth at 0.01 uM incubated for 48 hrs by sulforhodamine B assay relative to control; format: functional; details: M14, 48 h, read-out: Activity
# SK-OV-3 = assay: Growth inhibition of human SKOV3 cells assessed as cell growth at 0.1 uM incubated for 48 hrs by sulforhodamine B assay relative to control; format: functional; details: SK-OV-3, 48 h, read-out: Activity
# MDA-MB-231 = assay: Growth inhibition of human MDA-MB-231 cells assessed as cell growth at 0.01 uM incubated for 48 hrs by sulforhodamine B assay relative to control; format: functional; details: MDA-MB-231, 48 h, read-out: Activity
# LOX IMVI = assay: Growth inhibition of human LOXIMVI cells assessed as cell growth at 0.1 uM incubated for 48 hrs by sulforhodamine B assay relative to control; format: functional; details: read-out: Activity
# U-251 = assay: Growth inhibition of human U251 cells assessed as cell growth at 0.01 uM incubated for 48 hrs by sulforhodamine B assay relative to control; format: functional; details: U-251, 48 h, read-out: Activity
# SF-539 = assay: Growth inhibition of human SF539 cells assessed as cell growth at 0.1 uM incubated for 48 hrs by sulforhodamine B assay relative to control; format: functional; details: SF-539, 48 h, read-out: Activity
# SF-295 [7] = assay: Growth inhibition of human SF295 cells assessed as cell growth at 0.1 uM incubated for 48 hrs by sulforhodamine B assay relative to control; format: functional; details: SF-295, 48 h, read-out: Activity
# UO-31 [8] = assay: Growth inhibition of human UO31 cells assessed as cell growth at 1 uM incubated for 48 hrs by sulforhodamine B assay relative to control; format: functional; details: UO-31, 48 h, read-out: Activity
# ACHN = assay: Growth inhibition of human ACHN cells assessed as cell growth at 1 uM incubated for 48 hrs by sulforhodamine B assay relative to control; format: functional; details: read-out: Activity
# SW-620 = assay: Growth inhibition of human SW620 cells incubated for 48 hrs by sulforhodamine B assay; format: functional, cell-based; details: SW-620, 48 h
# NCI-H322M = assay: Growth inhibition of human NCI-H322M cells assessed as cell growth at 0.01 uM incubated for 48 hrs by sulforhodamine B assay relative to control; format: functional; details: read-out: Activity
# SNB-75 = assay: Growth inhibition of human SNB75 cells incubated for 48 hrs by sulforhodamine B assay; format: functional, cell-based; details: SNB-75, 48 h
# OVCAR-5 = assay: Growth inhibition of human OVCAR5 cells assessed as cell growth at 100 uM incubated for 48 hrs by sulforhodamine B assay relative to control; format: functional; details: OVCAR-5, 48 h, read-out: Activity
# UO-31 [9] = assay: Growth inhibition of human UO31 cells assessed as cell growth at 0.1 uM incubated for 48 hrs by sulforhodamine B assay relative to control; format: functional; details: UO-31, 48 h, read-out: Activity
# NCI-H226 = assay: Growth inhibition of human NCI-H226 cells incubated for 48 hrs by sulforhodamine B assay; format: functional, cell-based; details: NCI-H226, 48 h
# A549 = assay: Growth inhibition of human A549/ATCC cells assessed as cell growth at 100 uM incubated for 48 hrs by sulforhodamine B assay relative to control; format: functional; details: A549, 48 h, read-out: Activity
# MDA-MB-435 [10] = assay: Growth inhibition of human MDA-MB-435 cells assessed as cell growth at 0.01 uM incubated for 48 hrs by sulforhodamine B assay relative to control; format: functional; details: MDA-MB-435, 48 h, read-out: Activity
# MDA-MB-435 [11] = assay: Growth inhibition of human MDA-MB-435 cells assessed as cell growth at 100 uM incubated for 48 hrs by sulforhodamine B assay relative to control; format: functional; details: MDA-MB-435, 48 h, read-out: Activity
# CAKI-1 = assay: Growth inhibition of human Caki1 cells assessed as cell growth at 100 uM incubated for 48 hrs by sulforhodamine B assay relative to control; format: functional; details: CAKI-1, 48 h, read-out: Activity
# [12] = read-out: LC50 (the source's name)
# [13] = read-out: pLC50 (the source's name) (converted)
smiles,measurement,setting,value
COc1cc(Cl)cc(-c2nn(-c3cccc(NC(=O)Nc4cccc(C(F)(F)F)c4)c3)cc2-c2ccncc2)c1,growth at 1 µM,OVCAR-8,54%
same,growth at 0.1 µM,PC-3,57%
same,growth at 0.01 µM,SR,89%
same,growth at 1 µM,SF-268 [1],79%
same,growth at 100 µM,HCT-116,-81%
same,GI50,SF-295 [2]; read-out: GI50,0.753 µM
same,CC50,SF-295 [2]; [12],75.9 µM
same,TGI,SF-295 [2]; read-out: TGI,45.2 µM
same,GI50,SF-295 [2]; read-out: pGI50 (converted),0.776 µM
same,CC50,SF-295 [2]; [13],77.6 µM
same,TGI,SF-295 [2]; read-out: pTGI (converted),4.57 µM
same,growth at 100 µM,SF-268 [3],-28%
same,growth at 1 µM,SF-295 [4],45%
same,growth at 100 µM,SK-MEL-2,-68%
same,growth at 100 µM,Hs-578T,21%
same,growth at 0.1 µM,OVCAR-4 [5],98%
same,growth at 100 µM,OVCAR-4 [6],-13%
same,growth at 0.01 µM,M14,98%
same,growth at 0.1 µM,SK-OV-3,98%
same,growth at 0.01 µM,MDA-MB-231,102%
same,growth at 0.1 µM,LOX IMVI,97%
same,growth at 0.01 µM,U-251,95%
same,growth at 0.1 µM,SF-539,93%
same,growth at 0.1 µM,SF-295 [7],57%
same,growth at 1 µM,UO-31 [8],51%
same,growth at 1 µM,ACHN,65%
same,GI50,SW-620; read-out: GI50,2.3 µM
same,LC50,SW-620; read-out: LC50,> 100 µM
same,TGI,SW-620; read-out: TGI,25.8 µM
same,GI50,SW-620; read-out: pGI50 (converted),2.29 µM
same,LC50,SW-620; read-out: pLC50 (converted),> 100 µM
same,TGI,SW-620; read-out: pTGI (converted),26.9 µM
same,growth at 0.01 µM,NCI-H322M,99%
same,GI50,SNB-75; read-out: GI50,1.76 µM
same,CC50,SNB-75; [12],> 100 µM
same,TGI,SNB-75; read-out: TGI,13.9 µM
same,GI50,SNB-75; read-out: pGI50 (converted),1.78 µM
same,CC50,SNB-75; [13],> 100 µM
same,TGI,SNB-75; read-out: pTGI (converted),13.8 µM
same,growth at 100 µM,OVCAR-5,-13%
same,growth at 0.1 µM,UO-31 [9],50%
same,GI50,NCI-H226; read-out: GI50,2.26 µM
same,LC50,NCI-H226; read-out: LC50,> 100 µM
same,TGI,NCI-H226; read-out: TGI,11.5 µM
same,GI50,NCI-H226; read-out: pGI50 (converted),2.24 µM
same,LC50,NCI-H226; read-out: pLC50 (converted),> 100 µM
same,TGI,NCI-H226; read-out: pTGI (converted),28.8 µM
same,growth at 100 µM,A549,-24%
same,growth at 0.01 µM,MDA-MB-435 [10],100%
same,growth at 100 µM,MDA-MB-435 [11],-74%
same,growth at 100 µM,CAKI-1,-20%
